# “Also recorded” adds a separate entry of the source. Where two headings read alike, the source gives them in different places.
# What was measured:
# [1] = target: T1, Aβ-heparin binding (Homo sapiens, UniProt P05067); experiment: Solid phase binding immunoassay, binding of Aβ to substrate bound heparin; details: 5 μM Aβ 1-40
# T1 construct: 25 μM of Aβ (1-40)(Bachem Inc., Torrance, Calif., USA; Lot #WM365); purchased Bachem Inc., Torrance, Calif., USA
# Experimental: (§1) 12 μg of heparin (molecular weight=5,000; obtained from the Sigma Chemical Company, St. Louis, Mo., USA) or heparan sulfate (molecular weight=˜70,000; obtained from Seikagaku America, Rockville, Md.) in 80 μl of Tris-buffered saline containing 100 mM Tris-HCl, 50 mM NaCl, 3 mM NaN3, pH 9.0 (TBS) was allowed to bind overnight at 4° C. to microtiter wells (Nunc plates, Maxisorb). The next day all of the microtiter wells were blocked for 2 hours by incubating with 300 μl of TBS with 0.05% Tween-20 (TTBS) plus 1% bovine serum albumin (BSA) (obtained from the Sigma Chemical Company, St. Louis, Mo., USA). Then, 100 μl of 5 μM Aβ 1-40 (Bachem Inc., Torrance, Calif., USA; Lot #WM365) in TTBS containing 0.05% albumin in the presence or absence of glucose pentasulfate at concentrations of 2.5 mM, 0.83 mM, 0.28 mM and 0.093 mM were placed in wells (in triplicate) containing substrate bound perlecan or blank, and allowed to bind overnight at 4° C. The next day, the wells were rinsed once with TTBS, and then probed for 45 minutes with 100 μl of anti-6E10 (Senetek, Maryland Heights, Mo.)(which recognizes Aβ 1-17) diluted 1:1000 with TTBS. This was followed by rinsing once with TTBS and probed for 45 minutes with biotinylated goat-anti mouse (diluted 1:1000) containing streptavidin-peroxidase or anti-biotin-peroxidase (1:500 dilution of a 2 μg/ml solution) (Sigma Chemical Co., St. Louis, Mo.) in TTBS containing 0.1% BSA. The wells were then rinsed 3 times with TTBS and 100 μl of a substrate solution (OPD-Sigma Fast from Sigma Chemical Co., St. Louis, Mo.) was added to each well and allowed to develop for 5 minutes or until a significant color change was observed. The reaction was stopped with 50 μl of 4N H2SO4 and read on a Model 450 microplate reader (Biorad, Hercules, Calif., USA) at 490 nm.
# [2] = target: T2, Aβ (1-40) (Homo sapiens, UniProt P05067); experiment: Thioflavin T fluorometry assay of Aβ (1-40) amyloid fibril formation; type: biochemical; details: for effect on Aβ (1-40) amyloid fibril formation (in words): 1.25 mM compound (1:50 M ratio), 1-week incubation
# T2 construct: 25 μM of Aβ (1-40)(Bachem Inc., Torrance, Calif., USA; Lot #WM365); purchased Bachem Inc., Torrance, Calif., USA
# T2 sequence (P05067 672-711 limits assumed): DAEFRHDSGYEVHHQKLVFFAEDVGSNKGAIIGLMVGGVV
# Description: A previously described method of measuring amyloid fibril formation utilizing Thioflavin T fluorometry (H Naiki et al, Lab. Invest. 65:104-110, 1991; H Levine III, Protein Sci. 2:404-410, 1993; H Levine III, Amyloid: Int. J. Exp. Clin. Invest. 2:1-6, 1995; H Naiki and K. Nakakuki, Lab. Invest. 74:374-383, 1996) was employed initially to identify potential therapeutic compounds capable of inhibiting Aβ amyloid fibril formation. Using this sensitive assay, any decreases or increases in fluorescence were previously shown to correlate with a decrease or increase in the amount of amyloid fibrils (H Naiki et al, Lab. Invest. 65:104-110, 1991; H Levine III, Protein Sci. 2:404-410, 1993; H Levine III, Amyloid: Int. J. Exp. Clin. Invest. 2:1-6, 1995; H Naiki and K. Nakakuki, Lab. Invest. 74:374-383, 1996), allowing one to determine the identification and extent of potential inhibitors and/or enhancers of amyloid fibril formation.
# In an initial set of studies, the effects of various compounds on Aβ (1-40) fibrillogenesis was assessed. For these initial studies, 25 μM of Aβ (1-40)(Bachem Inc., Torrance, Calif., USA; Lot #WM365) was incubated in microcentrifuge tubes at 37° C. for 1 week (in triplicate), either alone, or in the presence of 1.25 mM (ie. 1:50 M ratio of Aβ:test compound) of various commercially available compounds (described below) in 150 mM Tris HCl, 10 mM NaCl, pH 7.0 (TBS). The compounds tested included glucose pentasulfate (PTI-48579, potassium salt; molecular weight=771), mannose pentasulfate (PTI-07499, potassium salt; molecular weight=771), methyl alpha-D-glucopyranoside 2,3,4,6-tetrasulfate (PTI-20049, potassium salt; molecular weight=667), methyl alpha-D-mannopyranoside 2,3,4,6-tetrasulfate (PTI-20814, potassium salt; molecular weight=667), sucrose heptasulfate (PTI-70936, potassium salt; molecular weight=1169), sucrose hexasulfate (PTI-70946, potassium salt; molecular weight=1052), and sucrose octasulfate (PTI-70011, potassium salt; molecular weight=1288).
# (§2) To assess the effects of each compound on Aβ (1-40) fibril formation, 50 μl aliquots were taken from each tube for analysis at 1 hr, 1 day, 3 days, and 1 week. For each determination described above, following each incubation period, 50 μl of Aβ+/−test compounds were added to 1.2 ml of 100 μM Thioflavin T (Sigma Chemical Co., St. Louis, Mo.) in 50 mM NaPO4 (pH 6.0). […] Fluorescence emission at 482 nm was measured on a Turner instrument-model 450 fluorometer at an excitation wavelength of 450 nm. For each determination, the fluorometer was calibrated by zeroing in the presence of the Thioflavin T reagent alone, and by seting the 50 ng/ml riboflavin (Sigma Chemical Co., St. Louis, Mo.) in the Thioflavin T reagent to 1800 fluorescence units. All fluorescence determinations were based on these references and any fluorescence given off by any of the compounds in the presence of the Thioflavin T reagent was always subtracted from all pertinent readings.
# For all fibrillogenesis studies utilizing Thioflavin T fluorometry, comparisons of Aβ in the presence or absence of test compounds were based on paired Student's t tests with data shown as mean+/−standard deviation. Significance was reported at the 95% (p<0.05), 99% (p<0.01) and 99.9% (p<0.001) confidence levels.
# In this study, the dose-dependent effects of glucose pentasulfate (PTI-48579) on Aβ (1-40) fibrillogenesis was determined using the Thioflavin T fluorometry assay. 25 μM of Aβ (1-40) (Bachem Inc., Torrance, Calif., USA; Lot #WM365) was incubated in microcentrifuge tubes at 37° C. for 1 week (in triplicate), either alone, or in the presence of 1.25 mM (ie. 1:50 M ratio of Aβ:PTI-48579), 0.41 mM, 0.138 mM and 0.046 mM of glucose pentasulfate in 150 mM Tris HCl, 10 mM NaCl, pH 7.0 (TBS). 50 μl aliquots were taken from each tube for analysis at 1 hr, 1 day, 3 days, and 1 week using Thioflavin T fluorometry as described in section 4.1. […]
# [3] = target: T3, human islet amyloid polypeptide (Homo sapiens, UniProt P10997); experiment: Thioflavin T fluorometry assay of islet amyloid polypeptide (amylin) fibrils; type: biochemical; details: 1.25 mM
# T3 construct: consists of a 37 amino acid protein known as islet amyloid polypeptide or amylin; purchased Bachem Inc, Torrance, Calif., USA
# T3 sequence (P10997 34-70 limits assumed): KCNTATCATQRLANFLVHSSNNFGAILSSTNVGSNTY
# Experimental: as §2
# For this study, the method of Thioflavin T fluorometry as described above was used. Briefly, 25 μM of human islet amyloid polypeptide (Bachem Inc, Torrance, Calif., USA, Lot # WL934) was incubated in microcentrifuge tubes at 37° C. for 1 week (in triplicate), either alone, or in the presence of 1.25 mM glucose pentasulfate (PTI-48579; molecular weight=771) or mannose pentasulfate (PTI-07499; molecular weight=771). To assess the effects of glucose pentasulfate and mannose pentasulfate on islet amyloid polypeptide fibrillogenesis, 50 μl aliquots were taken from each tube for analysis at 1 hr, 1 day, 2 days, 3 days, 4 days and 1 week. For each determination described above, following each incubation period, 50 μl aliquots of islet amyloid polypeptide+/−glucose pentasulfate or mannose pentasulfate were added to 1.2 ml of 100 μM Thioflavin T (Sigma Chemical Co., St. Louis, Mo.) in 50 mM NaPO4 (pH 6.0) for fluorometry readings as described in section 4.1.
# [4] = target: T4, Aβ-heparan sulfate binding (Homo sapiens, UniProt P05067); experiment: Solid phase binding immunoassay, Aβ-heparan sulfate binding; details: 2.5 to 0.093 mM; data not shown
# T4 construct: 25 μM of Aβ (1-40)(Bachem Inc., Torrance, Calif., USA; Lot #WM365); purchased Bachem Inc., Torrance, Calif., USA
# T4 sequence (P05067 672-711 limits assumed): as the sequence (P05067 672-711 limits assumed) above
# Experimental: as §1, with “This was followed by rinsing once with TTBS and probed for 45 minutes with biotinylated goat-anti mouse (diluted 1:1000) containing streptavidin-peroxidase or anti-biotin-peroxidase (1:500 dilution of a 2 μg/ml solution) (Sigma Chemical Co., St. Louis, Mo.) in TTBS containing 0.1% BSA. The wells were then rinsed 3 times with TTBS and 100 μl of a substrate solution (OPD-Sigma Fast from Sigma Chemical Co., St. Louis, Mo.) was added to each well and allowed to develop for 5 minutes or until a significant color change was observed.” left out
# [5] = target: T5, pre-formed Aβ (1-40) amyloid fibrils (Homo sapiens, UniProt P05067); experiment: Thioflavin T fluorometry assay of dissolution of pre-formed Aβ (1-40) amyloid fibrils; type: biochemical; details: 25 μM fibrillized Aβ, 4 day incubation
# T5 construct: 25 μM of Aβ (1-40)(Bachem Inc., Torrance, Calif., USA; Lot #WM365); purchased Bachem Inc., Torrance, Calif., USA
# T5 sequence (P05067 672-711 limits assumed): as the sequence (P05067 672-711 limits assumed) above
# Experimental: as §2
# For this study, 1 mg of Aβ (1-40) (Bachem Inc., Torrance, Calif., USA; Lot #WM365) was dissolved in 1.0 ml of double distilled water (1 mg/ml solution) and then incubated at 37° C. for 1 week. 25 μM of fibrillized Aβ was then incubated at 37° C. in the presence or absence of glucose pentasulfate at concentrations of 1.25 mM, 0.63 mM, 0.31 mM and 0.16 mM containing 150 mM Tris HCl, 10 mM NaCl, pH 7.0. Following a 4 day incubation, 50 μl aliquots were added to 1.2 ml of 100 μM Thioflavin T (Sigma Chemical Co., St. Louis, Mo.) in 50 mM NaPO4 (pH 6.0) for fluorometry readings as described in section 4.1.
# T1 sequence (P05067 672-711 limits assumed): as the sequence (P05067 672-711 limits assumed) above
compound,measurement,setting,value
"O=C[C@H](OS(=O)(=O)O)[C@@H](OS(=O)(=O)O)[C@H](OS(=O)(=O)O)[C@@H](COS(=O)(=O)O)OS(=O)(=O)O [PTI-48579, glucose pentasulfate]",inhibition at 93 µM,[1]; 0.093 mM,45%
same,inhibition at 280 µM,[1]; 0.28 mM,74%
same,inhibition at 830 µM,[1]; 0.83 mM,92%
same,inhibition at 2500 µM,[1]; 2.5 mM,78%
same,effect on Aβ (1-40) amyloid fibril formation (in words),"[2]; Example 1, 25 μM Aβ (1-40)",inhibited
same,inhibition at 1250 µM,"[2]; Example 1, 25 μM Aβ (1-40), 1.25 mM compound, 37° C., 1 week, read-out: inhibition of Aβ (1-40) amyloid fibril formation",80%
same,inhibition of Aβ amyloid fibril formation (in words),"[2]; Example 1, 1.25 mM compound, 3 days",Significant inhibition
same,inhibition of Aβ fibril formation (in words),"[2]; Example 2, 0.046 mM, 3 days",did not significantly inhibit
same,inhibition of Aβ fibril formation (in words),"[2]; Example 2, 0.138 mM, 3 days",did not significantly inhibit
same,inhibition at 410 µM,"[2]; Example 2, 0.41 mM, 1 week, read-out: inhibition of Aβ (1-40) fibrillogenesis",47%
same,inhibition of Aβ fibril formation (in words),"[2]; Example 2, 0.41 mM, 3 days",did not significantly inhibit
same,inhibition at 1250 µM,"[2]; Example 2, 1.25 mM, 1 week, read-out: inhibition of Aβ (1-40) fibrillogenesis",72%
same,inhibition at 1250 µM,"[2]; Example 2, 1.25 mM, 3 days, read-out: inhibition of Aβ fibril formation",39%
same,dissolution of pre-formed amylin fibrils,"[3]; 25 μM islet amyloid polypeptide, 1 week",57%
same,effect on islet amyloid polypeptide fibrillogenesis at earlier time points (in words),"[3]; 1 hour, 1 day and 2 days",initial increase
same,inhibition of Aβ-heparan sulfate binding (in words),[4],significant dose-dependent inhibition
same,dissolution of pre-formed Aβ amyloid fibrils,[5]; 0.16 mM,23%
same,dissolution of pre-formed Aβ amyloid fibrils,[5]; 0.31 mM,31%
same,dissolution of pre-formed Aβ amyloid fibrils,[5]; 0.63 mM,47%
same,dissolution of pre-formed Aβ amyloid fibrils,[5]; 1.25 mM,60%
"O=C[C@@H](OS(=O)(=O)O)[C@@H](OS(=O)(=O)O)[C@H](OS(=O)(=O)O)[C@@H](COS(=O)(=O)O)OS(=O)(=O)O [mannose pentasulfate, reference compound]",effect on Aβ (1-40) amyloid fibril formation (in words),"[2]; Example 1, 25 μM Aβ (1-40)",ineffective inhibitors; also recorded: did not inhibit
same,effect on islet amyloid polypeptide fibrillogenesis (in words),[3]; all time points (1 hr to 1 week),significant increase
"CO[C@H]1O[C@H](COS(=O)(=O)O)[C@@H](OS(=O)(=O)O)[C@H](OS(=O)(=O)O)[C@H]1OS(=O)(=O)O [methyl alpha-D-glucopyranoside 2,3,4,6-tetrasulfate, reference compound]",effect on Aβ (1-40) amyloid fibril formation (in words),"[2]; Example 1, 25 μM Aβ (1-40)",ineffective inhibitors
"CO[C@H]1O[C@H](COS(=O)(=O)O)[C@@H](OS(=O)(=O)O)[C@H](OS(=O)(=O)O)[C@@H]1OS(=O)(=O)O [methyl alpha-D-mannopyranoside 2,3,4,6-tetrasulfate, reference compound]",effect on Aβ (1-40) amyloid fibril formation (in words),"[2]; Example 1, 25 μM Aβ (1-40)",ineffective inhibitors
"O=S(=O)(O)OC[C@H]1O[C@@](COS(=O)(=O)O)(O[C@H]2O[C@H](COS(=O)(=O)O)[C@@H](OS(=O)(=O)O)[C@H](OS(=O)(=O)O)[C@H]2OS(=O)(=O)O)[C@@H](OS(=O)(=O)O)[C@@H]1OS(=O)(=O)O [sucrose octasulfate, reference compound]",effect on Aβ (1-40) amyloid fibril formation (in words),"[2]; Example 1, 25 μM Aβ (1-40)",ineffective inhibitors
sucrose heptasulfate [reference compound],effect on Aβ (1-40) amyloid fibril formation (in words),"[2]; Example 1, 25 μM Aβ (1-40)",ineffective inhibitors
sucrose hexasulfate [reference compound],effect on Aβ (1-40) amyloid fibril formation (in words),"[2]; Example 1, 25 μM Aβ (1-40)",ineffective inhibitors
